Assay results taken from US20240309365A1, “MODULATING TRANSCRIPTIONAL CONDENSATES” (Whitehead Institute for Biomedical Research, priority 2020, published 2024).
Numbered stars: 1 amine (or outer) side, 2 acyl side, 3 side chain; on linkers, the order of the positions; unused ones are H or OH. Bridge positions count the residues as written; N and C are the ends. Square brackets hold non-standard residues; d marks the D form. Peptide text beside a SMILES is read from it. I, II: the chains in the order shown. Actinocin(9to1) = Cc1c2oc3c(C)ccc(C(=O)[*:1])c3nc-2c(C(=O)[*:2])c(N)c1=O; NMeV = CN[C@H](C(=O)O)C(C)C; Sar = CNCC(=O)O

Columns and labels:
[1] = tested on: Med19 condensates in mESCs; test: Condensate lifetime in Med19-Halo mESCs by tcPALM; format: cell-based, mouse
Procedure: (§1) For small molecule inhibition experiments, cells were treated with 100 μM DRB (Sigma), or 1 μM Actinomycin-D (Sigma) in 2i media (detailed above) for 30 minutes, then imaged. For wash-out experiments, media was replaced with fresh 2i media and cells were allowed to recover for 1 hour, then the cells were imaged.
HaloTag was endogenously knocked into 5′-end of Med19 via homology-directed repair (HDR) in mouse embryonic stem cells (R1 mESCs). Three single-guide RNAs (sgRNAs) targeting+/−100 bps from the start codons of Med19 gene were designed using the web-based CRISPR Design tool (http://crispr.mit.edu) and integrated into a Streptococcus pyogenes Cas9 vector (Addgene #62988) for standard CRISPR/Cas9 editing. Single positive colonies were sorted by fluorescence-activated cell sorting (FACS) and validated under the microscope. […]
Photo-activation localization microscopy (PALM) imaging was performed using a Nikon Eclipse Ti microscope with a 100× oil immersion objective (NA 1.40) (Nikon, Tokyo, Japan). […] Med19-Halo cluster lifetimes were calculated as previously described using the qSR software (dark time tolerance=20 frames, min cluster size=50) (Andrews et al., 2018), and a cumulative distribution was generated using Prism software (GraphPad).

[2] = tested on: Med1-GFP condensates in mESCs; test: Condensate size in Med1-GFP mESCs after transcription inhibition; format: cell-based, mouse; conditions: 30 minutes; 100 μM DRB or 1 μM Actinomycin-D; 3D super-resolution microscopy
Procedure: as §1
Cells with endogenously-tagged Med1-GFP (Sabari et al., 2018) were plated on glass-bottom dishes (Mattek) coated with poly-L-ornithine (Sigma) and laminin (ThermoFisher). Mock (DMSO) and treated cells were imaged on a LSM 880 Confocal Microscope with Airyscan to obtain super-resolution z-stacks for at least 8 different fields containing multiple cells. For quantification, a manual threshold was applied equally across all conditions to remove background, and the size of Med1-GFP puncta was quantified in 3D using the 3D object counter plugin (Fiji/ImageJ).

[3] = tested on: reconstituted mammalian transcription system (Pol II, general transcription factors, Mediator, Gal4); test: Reconstituted in vitro transcription assay (droplets and qRT-PCR output); format: biochemical; conditions: 2 mM NTPs, 200 mM NaCl, 500 nM heparin, spermine at concentrations predicted to balance charge; for partitioning of template DNA into droplets: Cy3-labeled template DNA; for droplet area: added to the transcription reaction; for transcription (levels of RNA synthesis): qRT-PCR of template-derived RNA
Procedure: For the size analysis of droplets formed in the reconstituted transcription assays (FIG. 3), brightfield images were subtracted by a median-filtered image (px=21), and droplets were manually segmented and their areas measured using ImageJ.
The reconstituted in vitro transcription by RNA polymerase II was performed as previously described (Flores et al., 1992; LeRoy et al., 2008, 2019; Orphanides et al., 1998) with some modifications. A 1000 bp template DNA (unlabeled or Cy-3 labeled at 3′ end) containing adenovirus major late promoter, five Gal4 binding sites, TATA-box sequence and 561 bp from eGFP sequence was used. First, pre-initiation complex was assembled at RT for 15 min by mixing the following components: 50 nM RNA polymerase II enriched for hypophosphorylated CTD, 50 nM general transcription factors (TFIIA-B-D-E-F-H), and 5.75 nM template DNA, in a buffer containing 10 mM HEPES pH 7.5, 65 mM NaCl, 6.25 mM MgCl2, and 6.25 mM Sodium butyrate. Next, 10 nM Mediator complex and 10 nM GAL4 (Gal4 DNA binding domain fused to activation domain of VP16) were added to the reaction. Last, nucleotide mix containing 0.375 mM ATP, CTP, UTP, GTP (Invitrogen), 0.01 U RNase Inhibitor (Invitrogen), 1.25% PEG-8000 were added together with one of the following: a) various amounts of purified exogenous Pou5f1 RNA (0-500 nM) b) spermine (Sigma, S4264) c) extra NTPs (Invitrogen) d) extra NaCl e) heparin (Sigma, H3393). The reaction was incubated at 30° C. for 2 hr. RNA isolation was performed using RNeasy kit (Qiagen) by including a spike-in RNA control and an RNA carrier. Purified RNAs were treated with ezDNase (Invitrogen) for 30 min at 37° C. to eliminate the template DNA. Reverse transcription was performed using Superscript IV (Invitrogen) and qPCR was performed with SYBR Green Real Time PCR master mix (Invitrogen) to quantify the template derived transcriptional output. The Ct values of the reactions were normalized to the spike-in RNA control. The concentration of template derived transcriptional output was calculated by using a standard curve of qRT-PCR Ct values generated by known amounts of serially diluted GFP RNA.
To visualize the droplets formed in the reconstituted transcription assay, using a micropipette (2-20 μL), 5 μL of the reactions were loaded onto a homemade chamber, which was prepared by attaching coverslips to a glass slide by parallel strips of double-sided tape (Sabari et al., 2018). After the droplets were settled on the glass coverslip, the images were collected by using RPI Spinning Disk confocal microscope with a 100× objective. To account for camera artifacts in the images, brightfield Images of droplets from reconstituted assays were subjected to a white tophat filter with a disk element radius of 21 using the MorphoLib plugin in ImageJ, then a Gaussian filter (sigma=1) was applied.

MED1-IDR = biological target: T1, MED1-IDR (Homo sapiens, UniProt Q15648); test: In vitro droplet assay with MED1-IDR-GFP; format: biochemical; conditions: alternative polyanions instead of RNA
T1 construct: Amino acids included; 6xHIS; made in house; host or cells: LOBSTR cells (E. coli), pET plasmid, Ni-NTA purification
Procedure: Charge-balance calculations were performed (FIGS. 2, 9, 10 and 11) employing the following method. Net protein charge per molecule was calculated as Cp=#(R, K)−#(D, E) for the relevant sequence including the GFP tag. RNA charge per molecule was calculated as Cr=−(# […]), assuming an approximate charge of −1 per nucleotide (Lin et al., 2019). Next, the charge balance ratio was computed at a particular RNA and protein concentration as:
The effective concentration of MED1-IDR in the assays was 1000 nM. The results were not quantitatively affected by inclusion/exclusion of the partial charge on Histidine residues, partly due to their low frequency on the protein sequences. For Heparin, a charge of roughly −3 per monomer was employed (Lin et al., 2020) and for single-stranded DNA, a charge of −1 per nt was employed. The fit is quantified by calculating Pearson correlation coefficient (r) was calculated between the median droplet partition value at different concentrations and the relevant charge-balance ratios and reported in FIGS. 2, 9, 10, and 11. A higher correlation implies that experimental data follow a similar qualitative trend as the estimated charge-balance curves. The code for performing these calculations are available at: […]

Mediator complex = tested on: T2, Mediator complex; test: In vitro droplet assay with purified Mediator complex; format: biochemical, human; conditions: 6-400 nM RNA added to 200 nM purified Mediator complex
T2 construct: Purification of Human Mediator Complex from HeLa Nuclear Extract; endogenous in cells; host or cells: HeLa nuclear extract, multi-step column purification
Procedure: HeLa nuclear protein extract (4 g) was prepared as described in (Dignam et al., 1983). Nuclear extract was dialyzed against BC100: BC buffer, pH 7.5+100 mM KCl (20 mM Tris-HCl, 20 mM B-Mercaptoethanol, 0.2 mM PMSF, 0.2 mM EDTA, 10% glycerol (v/v) and 100 mM KCl). The extract was fractionated on a phosphocellulose column (P11) with BC buffer containing 0.1, 0.3, 0.5 and 1M KCl. The Mediator complex eluted in the 0.5M KCL (BC500) fraction. This fraction was dialyzed against BC100 and loaded on a DEAE Cellulose column and sequentially fractionated with BC buffer containing 0.1, 0.3 and 0.5M KCl. […] This fraction was then directly loaded onto a DEAE-5 PW column (TSK) and eluted with a linear KCl gradient from 0.1 to 1M KCl in BC buffer. The Mediator complex eluted between 0.4 and 0.6M KCl. The fractions containing Mediator were pooled and dialyzed against BD700: BD buffer, (20 mM Hepes pH 7.5, 20 mM β-Mercaptoethanol, 0.2 mM PMSF, 0.2 mM EDTA, 10% glycerol, and 700 mM (NH4)2SO4). This fraction was then loaded onto a Phenyl-Sepharose Hydrophobic Interaction Chromatography (HIC) column and eluted with a linear reverse gradient from 0.7 to 0.025M (NH4)2SO4 in BD buffer. The Mediator complex eluted between 0.3 and 0.1M (NH4)2SO4. […]

T1 sequence (Q15648 948-1573): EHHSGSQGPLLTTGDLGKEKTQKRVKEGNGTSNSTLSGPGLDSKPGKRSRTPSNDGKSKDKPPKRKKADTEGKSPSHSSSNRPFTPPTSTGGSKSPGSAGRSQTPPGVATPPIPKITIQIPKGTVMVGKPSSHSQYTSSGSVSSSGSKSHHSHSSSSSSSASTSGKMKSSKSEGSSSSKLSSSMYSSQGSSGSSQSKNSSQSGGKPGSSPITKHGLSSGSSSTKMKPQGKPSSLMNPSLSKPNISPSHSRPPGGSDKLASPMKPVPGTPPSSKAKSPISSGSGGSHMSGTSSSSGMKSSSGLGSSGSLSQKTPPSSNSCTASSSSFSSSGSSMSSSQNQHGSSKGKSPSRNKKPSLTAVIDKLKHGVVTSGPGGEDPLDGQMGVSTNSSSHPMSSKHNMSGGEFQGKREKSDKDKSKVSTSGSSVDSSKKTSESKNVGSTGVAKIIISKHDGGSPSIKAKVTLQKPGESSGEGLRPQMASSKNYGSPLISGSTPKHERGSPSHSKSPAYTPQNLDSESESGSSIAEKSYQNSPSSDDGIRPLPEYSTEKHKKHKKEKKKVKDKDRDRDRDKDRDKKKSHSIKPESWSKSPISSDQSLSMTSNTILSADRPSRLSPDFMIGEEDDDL

## OC[C@H]1O[C@@H](n2cnc3cc(Cl)c(Cl)cc32)[C@H](O)[C@@H]1O [DRB]
[1]; 100 μM DRB, 30 minutes, tcPALM
  lifetime of Med19 condensates versus mock-treated cells: significantly longer lifetimes
[1]; DRB-treated cells washed, 1 hour recovery
  lifetime of Med19 condensates after wash with fresh media: recovered to those of the mock-treated condition
[2]
  increase in volume of Med1-GFP condensates: ~2 fold

## heparin
[3]
  partitioning of template DNA into droplets: reductions
  droplet area: reductions
  transcription (levels of RNA synthesis): reductions
MED1-IDR
  fit of MED1-IDR partitioning to the charge balance model: charge balance model also held

## Cc1c2oc3c(C)ccc(C(=O)N[C@@H]4C(=O)N[C@H](C(C)C)C(=O)N5CCC[C@H]5C(=O)N(C)CC(=O)N(C)[C@@H](C(C)C)C(=O)O[C@@H]4C)c3nc-2c(C(=O)N[C@@H]2C(=O)N[C@H](C(C)C)C(=O)N3CCC[C@H]3C(=O)N(C)CC(=O)N(C)[C@@H](C(C)C)C(=O)O[C@@H]2C)c(N)c1=O [Actinomycin-D] (I: T[dV]P[Sar][NMeV] / II: T[dV]P[Sar][NMeV]; ester I:1-I:C, II:1-II:C; linker I:N-II:N via Actinocin(9to1))
[2]
  increase in volume of Med1-GFP condensates: ~2 fold

## NCCCNCCCCNCCCN [spermine]
[3]
  partitioning of template DNA into droplets: increased
  droplet area: increased
  transcription (levels of RNA synthesis): increased

## [Cl-].[Na+] [NaCl]
[3]
  partitioning of template DNA into droplets: reductions
  droplet area: reductions
  transcription (levels of RNA synthesis): reductions

B1: ssDNA: single-stranded DNA, 117 nt, SEQ ID NO: 51, alternative polyanion (nucleic acid)
DNA: GGTTCTGCCGCAGGTGGATCCGGTATGTCCACCGCCACGACAGTCGCCCCCGCGGGGATCCCGGCGACCCCGGGCCCTGTGAACCCACCCCCCCCGGAGGTCTCCAACCCCAGCAAG
modifications: DNA, backbone and methylation of C not given here
MED1-IDR
  fit of MED1-IDR partitioning to the charge balance model: charge balance model also held

B2: Trim28 enhancer RNA: enhancer RNA transcribed from the Trim28 super-enhancer, 594 nt, SEQ ID NO: 46 (nucleic acid)
chain: AAATCTTGGAGAGAGTAGGACCTGAGCTGTTTCCTATTTCTACTACTTCCATAGACATCCATGGGTCTCCTTTGGTTCTTACCTTAAACTGCAGTTCTAGAGGCTCTTCTGGGGTTGTAAACTGCCCTTCCCCAACTCAGGAGCTCCCATTCCCTCCCCTTCCTAAACTGGCCCTACTTGTTCGCTCTACTTTATCTTGCCAGGGGTTGTAACAGCCTCCAATCTGTCTTGGATCAGGAAGCAGTTTCCATGGGGTATTTTAAGTGTAAGTTCCCCGGTGAAATGGAAACAAAAAGAATAAGGTATTCTGGGGACAGTGTAGGCCCACTAGGGTGTAGCTTGTTTTGTAAACACAGGACCTGAGTTTTGGACTTTGCCCTGGATTGTACCTGTCCCAGTGGGTTACCTTAGATGACACTAGCTTCATAATGCAAGAGGAGGTTAAGATGCTGGCTAGCGTTACCCACTTTGAAGGTACTGGAAAAGGAAGACCTGATTTACCCAAAAGAGGGAGATCTCTGTGCTTCTACCGCTTTAATTTTTTTTTTCTTTTTTTAAATATTTTTGCAGGACTGGTCACTGTAACTTTTTCCC
modifications: 47
Mediator complex
  RNA concentration at which droplet sizes peaked: 100 nM
  effect on the size of Mediator/RNA droplets: dose-dependent effect
